| Structure (SMILES) | melting point |
| --- | --- |
| CCCn1cc(Cc2ccc(C(=O)O)cc2OC)c2cc(CC3CCN(C)C3=O)ccc21 (stereo unspecified) | 98 to 107 °C |
| COc1cc(/C=C\c2cnc(N)nc2N)cc(OC)c1OC | 175 to 177 °C |
| N#CC(=CC=Cc1ccccc1)C(=O)O | 196 °C |
| COc1ccc(C(O)CN2CCN(C(c3ccccc3)c3ccccc3)CC2)c(OC)c1 (stereo unspecified) | 116 °C |
| CCCNC(=O)c1nc(C)ccc1C(=O)Nc1c(C#N)ccc(Cl)c1C | 175 to 176 °C |
| Oc1ccc2cc(Oc3c(Cl)cc(C(F)(F)F)cc3Cl)ccc2c1 | 158 °C |
| Cc1cccc(N(C)c2nc(Cl)nc(Cl)n2)c1C | 140 to 141 °C |
| COc1ccc(C(=O)c2ccc(Br)s2)cc1 | 97 to 99 °C |
| Cn1ccc(-c2ccc([N+](=O)[O-])o2)n1 | 163 to 164 °C |
| C[C@@H](NC(=O)c1c[nH]c2ncc(-c3nn(C)c4cc(C(C)(C)C)ccc34)nc12)C(=O)N1CC(C#N)C1 | 180 to 195 °C |
| COC(=O)C(NC(=O)c1ccccc1)c1ccc(-c2ccc(S(=O)(=O)O)cc2)cc1 (stereo unspecified) | > 250 °C |
| COC(=O)C1OC(c2cc(-c3ncc(C(F)(F)F)cc3Cl)ccc2Cl)OC1C(=O)OC (stereo unspecified) | 48 to 53 °C |
| OC1(c2ccccc2Cc2ccccc2)CCC2(CC1)OCCO2 | 97 to 98 °C |
| COC(=O)c1nc(C)c(-c2ccccc2)nc1N | 162 °C |
| CN1CCN(Cc2c(CO)c(Cl)nc3cc4c(cc23)OCCO4)CC1 | 178 to 180 °C |
| CSc1cc(C(C)C)c(NC(=O)C2c3ccccc3COc3ccc(Br)cc32)c(C(C)C)c1 (stereo unspecified) | 171 to 172 °C |

| Structure (SMILES) | melting point |
| --- | --- |
| COC(=O)CCCc1cc2cc(Cl)ccc2n1S(=O)(=O)c1ccc(N)c(N)c1 | 158 to 160 °C |
| O=S1(=O)c2cccc3cccc(c23)N1CCCN1CC=C(c2ccc(Cl)cc2)CC1 | 111 °C |
| CC1CN(c2c(F)cc3c(=O)c(C(=O)O)cn4c3c2OCC4C)CC1NC(=O)OC(C)(C)C (stereo unspecified) | 206 to 207 °C |
| Fc1ccccc1OCc1ccc2ccccc2n1 | 84 to 86 °C |
| CC(C)CN(Cc1nc(-c2ncn3c2[C@@H]2CCN2C(=O)c2c(Cl)cccc2-3)no1)CC(C)C | 125 to 140 °C |
| CC(C)(C)OC(=O)NCc1cc(N)ccc1Cl | 75 to 77 °C |
| Cc1nc2ccc3c(c2o1)C(CCNC(=O)c1ccccc1)CC3 (stereo unspecified) | 73 to 76 °C |
| CNC(=S)Nc1cc(SC)ccc1N1CCOCC1 | 132 to 133 °C |
| COC(=O)c1ccc2c(c1SCCCl)Cc1ccccc1CO2 | 100 °C |
| COc1cc(C)c(C(=O)c2c(OC)cccc2C(F)(F)F)c(OC)c1OC | 69 to 70 °C |
| Cc1ccc(S(=O)(=O)N2CC(CO)(C(=O)O)C2)cc1 | 148 to 150 °C |
| Cc1c(C2CCC(c3ccccc3)(N(C)C)CC2)[nH]c2ccc(OC(F)(F)F)cc12 (stereo unspecified) | 219 to 221 °C |
| CCOC(=O)c1ccc(C(=O)c2ccc(N)cc2)cc1 | 125 °C |
| CCCCC(C#N)c1cccc(C(=O)c2cc3cc(C(=O)OC)sc3s2)c1 (stereo unspecified) | 131 °C |
| COc1cc2cc(-c3ccncc3)oc2cc1OC | 227 to 229 °C |

Further lines, results first:

| melting point | Structure (SMILES) |
| --- | --- |
| 170 to 171 °C | CCCCNC(=O)Nc1sc2c(c1C#N)CCCC2 |
| 140 to 145 °C | CN1C(=O)c2ccccc2CC1C(=O)NC(Cc1c[nH]cn1)C(=O)N1CCCC1C(N)=O (stereo unspecified) |
| 199 to 201 °C | Cc1nn(-c2cc3nc(S(C)=O)sc3cc2F)c(=O)n1C (stereo unspecified) |
| > 300 °C | COc1cc(OC)c2c(=O)[nH]c(-c3ccc(OC)c(-c4ccc(C(=O)N(C)C)cc4Cl)c3)nc2c1 |
| 211 to 215 °C | COC(=O)Nc1cnc2ccc(Sc3ccccc3)cn12 |
| 141 to 143 °C | Brc1ccn(-c2ccc(-c3ccccc3)cc2)c1 |
| 175 to 178 °C | CC(C)CCC(=O)NC1(C(=O)NC2N=C(C(C)(C)C)c3ccccc3N(C)C2=O)CCCC1 (stereo unspecified) |
| 81 to 82 °C | CCCCCCCCCCN(O)C(=O)NCCCCCCC(=O)OC |
| 134 to 135 °C | CCON(c1ccc([N+](=O)[O-])cc1Cl)S(=O)(=O)c1ccc(C)cc1 |
| 33 to 34 °C | CCCCCCCCCCCCCCCCCCCCOC(=O)Cl |
| 70 to 73 °C | CCCCNS(=O)(=O)CC(=O)[C@@H]1OC(C)(C)N(C(=O)OC(C)(C)C)[C@H]1CC1CCCCC1 |
| 142 °C | Cc1cc(C)nc(Oc2cccc(Oc3ncc(Cl)cn3)c2)n1 |
| 140 °C | COc1ccc(CN(C)CCOc2ccc(NC(=O)c3cccc4c(=O)c5ccccc5[nH]c34)cc2)cc1OC |
| 201 to 203 °C | c1ccc(COCCNc2ccc(Nc3ncnc4cc(-c5ccccc5)sc34)cc2)cc1 |
| 210 to 218 °C | CCCC12CCC3=C(CCc4cc(O)ccc43)C1CCC2O (stereo unspecified) |
| 215 °C | Cc1ccccc1-c1nc2ccccc2[nH]1 |
| 245 to 246 °C | N#CCCNC(=O)c1n[nH]cc1NC(=O)c1ccc(C(F)(F)F)cc1 |
| 174 to 176 °C | CC(=O)Nc1cc(C(C)(C)C)c(Cl)cc1CN(C)C1CCCCC1 |
| 83 to 84 °C | CCOC(=O)CCCN(C(=O)c1ccc(F)cc1)c1ccccc1-c1ccccc1 |
| 91 to 94 °C | COc1cccc(C2=C(c3ccc(C(=O)N4Cc5cccn5Cc5ccccc54)cc3C)CCCC2)c1 |

| melting point | Structure (SMILES) |
| --- | --- |
| 156 to 160 °C | CNC(=O)c1ccc(Br)c2nsnc12 |
| 302 to 308 °C | CCCOC(=O)Oc1ccc(-c2nc3c(N)nc(N)nc3nc2N)cc1 |
| 126 to 128 °C | CSC1COc2cc(NS(C)(=O)=O)c(Oc3ccccc3)cc2C1=O (stereo unspecified) |
| 145 to 147 °C | CCCCCCOC(=O)C(O)C1OC(n2cnc3c(N)ncnc32)C(O)C1O (stereo unspecified) |
| 195 to 210 °C | CN1CCN(C(=O)c2ccc3n2Cc2ccc(C(=O)O)cc2N(C(=O)c2ccc(C4CCCCC4)cc2)C3)CC1 |
| 91 to 92 °C | Cc1onc(-c2ccc(C(F)(F)F)cc2)c1CCl |
| 170 to 171 °C | COc1cn(-c2cccc(C(F)(F)F)c2)nc(C(=O)N(C)OC)c1=O |
| 147 to 149 °C | COC(=O)c1ccc(OCCCNC(=O)C[C@H]2O[C@H](c3cccc(OC)c3OC)c3cc(Cl)ccc3N(CC(C)(C)CO)C2=O)cc1 |
| 70 to 72 °C | CCOC(=O)c1cnc(Cl)c([N+](=O)[O-])c1NC |
| 256 to 258 °C | COc1ccc(-n2cc(C(=O)O)c(=O)c3cc(F)c(F)cc32)cc1 |
| 210 to 213 °C | CC1(C)[C@@H](C(=O)Nc2cc(C(F)(F)F)n[nH]2)[C@@H]1c1ccc(S(N)(=O)=O)cc1 (relative stereo) |
| 155 to 157 °C | COc1ccc2[nH]c(/C=C/C(=O)OCc3ccccc3)cc2c1 |
| 240 to 242 °C | CC(=NOCCOc1ccc(CC2SC(=O)NC2=O)cc1)c1ccc(O)nc1 (stereo unspecified) |
| 51 to 52 °C | CCCCCCCCCCC[C@H](CC(=O)N[C@H](CO)C(=O)OCc1ccccc1)OC(=O)CCCCCCCCC |
| 125 to 127 °C | CC(=O)Nc1ccc(OCCCCl)cc1 |
| 101 to 102 °C | COCOc1cc(CCCOc2ncccc2CC(=O)O)n(Cc2ccc(Cl)cc2Cl)n1 |
| 127 to 129 °C | CCOC(=O)COc1cc(F)c(-c2ncnc(C(F)(F)F)c2Cl)cc1[N+](=O)[O-] |
| 150 to 151 °C | O=c1oc(-c2ccsc2)cc(O)c1SCc1ccccc1 |
| 92.6 °C | FC(F)(F)c1cccc(NC2CCCN(c3ccc(Cl)nn3)C2)c1 (stereo unspecified) |
| 94 to 97 °C | CCN1CSCN(CC)C1=S |

— a melting point compilation (Tetko et al.; mined from patent text by program, amines drawn as free bases though some values may be those of a salt)
